Laboratory results as given in PMC11475369, “Exploring the Potential of Synthetic Cannabinoids: Modulation of Biological Activity of Normal and Cancerous Human Colon Epithelial Cells” (Cells, 2024).
Converted amounts (≈) assume the structure as drawn. “And” between values parts separate entries of the source, which are not always exact repeats. Identical values can stand only once.

How the values were obtained:
CCD 841 CoTr cells [1] = assay: MTT assay, metabolic activity of CCD 841 CoTr cells; format: cell-based, human; settings: for IC50: Homo sapiens, CCD-841, 24 h, read-out: IC50 Values (MTT method)
Procedure: (§1) The HT29 cell line (ATCC no. HTB-38) (human colon adenocarcinoma) was used in the present study. Cells were cultivated in RPMI 1640 culture medium with 10% fetal calf serum (FCS) (GibcoTM, Paisley, UK), supplemented with antibiotics (100 U/mL penicillin and 100 μg/mL streptomycin) (Sigma, St. Louis, MO, USA). The cell culture was performed in standard conditions, i.e., at 37 °C in a humidified atmosphere with 5% CO2. The CCD 841 CoTr cell line (ATCC no. CRL-1807) (human normal colon epithelium) was cultivated in RPMI 1640 +DMEM (1:1) medium (Sigma, St. Louis, MO, USA) with 10% FCS and the addition of antibiotics. The culture was carried out at 34 °C in a 5% CO2/95% air atmosphere.
After seeding (1 × 10^5 cells/mL) in a 96-well plate, the cells were incubated for 24 h. Thereafter, the tested compounds (100 μL) at a concentration range of 0–200 μg/mL in the culture medium were added to the wells (100 μL). The incubation lasted for 24 h. After that time, an MTT solution (5 mg/mL, 25 μL/well) was added to each well. The incubation was continued for another 3 h. After the incubation, 10% sodium dodecyl sulfate (SDS) in 0.01 M HCl (100 μL) was added in order to dissolve the purple formazan crystals. Solubilization was carried out overnight. Finally, spectrophotometric measurement was performed at 570 nm using an EL800 Universal Microplate Reader (BioTek Instruments, Winooski, VT, USA).

CCD 841 CoTr cells [2] = assay: Neutral Red (NR) uptake assay, viability of CCD 841 CoTr cells; format: cell-based; settings: Homo sapiens; CCD 841 CoTr colon normal cells, 24 h incubation
Procedure: as §1
After seeding (1 × 10^5 cells/mL) in a 96-well plate, the cells were incubated for 24 h. Thereafter, the tested compounds (100 μL) at a concentration range of 0–200 μg/mL in the culture medium were added to the wells (100 μL). The incubation lasted for 24 h. After that time, the culture medium was removed and a 0.4% Neutral Red solution in the culture medium was added to each well. The incubation was continued for another 3 h. After the incubation, the medium with the NR dye was discarded, and 4% paraformaldehyde in 1% CaCl2 was added for cell fixation (200 μL) and incubated for 3 min. Intracellular dye deposits were solubilized using 1% […] in a 50% ethanol solution (100 μL). The plates were then gently shaken (20 min.) at room temperature to dissolve and release the dye from the cells. Finally, spectrophotometric measurement was performed at 540 nm using an EL800 Universal Microplate Reader (BioTek Instruments, Winooski, VT, USA).

[3] = Ferric-reducing antioxidant power assay (FRAP)
Procedure: The antioxidant activity in the FRAP method determines the ability of the analyzed compounds to reduce iron ions. This allowed for the direct determination of the reducing capacity of the tested cannabinoids. The principle of the method was based on measuring the reduction in the tPtZ compound (iron-2,4,6-tripyridyl-S-[…] complex) under the influence of the cannabinoids. The following concentrations of the cannabinoids were prepared: 25, 100, and 200 μg/mL in Milli-Q water. […] The procedure was carried out as follows: each compound, at a concentration of 1 mL, was mixed with 1 mL of 0.2 M sodium phosphate buffer (pH 6.6) and 1 mL of 1% potassium ferricyanide. The mixture was vortexed and incubated for 30 min. at 37 °C. After the incubation, 1 mL of 10% trichloroacetic acid (w/v) was added to each sample, and the preparations were centrifuged at 1000 g for 5 min. Next, an equal volume of Milli-Q water and the upper layer of the samples (1 mL + 1 mL) were mixed with 100 μL of 0.1% ferric chloride and subjected to spectrophotometric reading at 700 nm using an EL800 Universal Microplate Reader (BioTek Instruments, Winooski, VT, USA). The higher the absorbance, the higher the iron ion-reducing activity of the tested cannabinoids is.

CCD 841 CoTr cells [4] = assay: Flow cytometry (PI) cell cycle analysis of CCD 841 CoTr cells; format: cell-based, human; settings: 25 μg/mL, 24 h
Procedure: In the flow cytometric study, we assessed the impact of the cannabinoids at a concentration of 25 μg/mL on the distribution of cell cycle phases in the normal and cancer cells after 24 h incubation. Both adhered, and non-adsorbed (floating) cells were used to perform the analyses. They were collected after 24 h of incubation with the tested cannabinoids and centrifuged (3000 rpm/5 min.). Next, the cell pellet was rinsed and suspended in PBS w/o Ca^2+ and Mg^2+ ions and centrifuged again (3000 rpm/5 min.). The cell pellet was suspended and fixed in 70% ethanol (1 mL). Untreated cells served as a control. The cells were stored at −20 °C for 1 week. After that time, in accordance with the manufacturer protocol, the cells were subjected to the PI staining procedure (PI/RNase Staining Buffer, BD PharmingenTM, BD Biosciences, San Jose, CA, USA). Briefly, 1 mL of PBS w/o Ca^2+ and Mg^2+ ions was added to 1 mL of ethanol and incubated with gentle stirring for 5 min. at room temperature. Next, the cells were centrifuged (3000 rpm/5 min.) and suspended in PBS w/o Ca^2+ and Mg^2+ ions with gentle stirring for 5 min. at room temperature. The cells were centrifuged once again (3000 rpm/5 min.) and the cell pellet was suspended in 500 μL of PI/RNase Staining Buffer. The incubation was carried out for 15 min. at room temperature. Finally, the intensity of the PI fluorescence was measured using FACS Calibur (BD Pharmingen^TM). The obtained data were analyzed using Cell Quest Pro Version 6.0. for the Macintosh operating system (BD Pharmingen^TM). The percentage of cells in the appropriate phases of the cycle was calculated based on all analyzed gated cells. A total of 10,000 events were measured per sample.

[5] = CCD 841 CoTr colon normal cells, 24 h incubation
[6] = cannabinoid concentration 25 μg/mL
[7] = cannabinoid concentration 100 μg/mL
[8] = cannabinoid concentration 200 μg/mL

CCCCCc1cc(O)c2c(c1)OC(C)(CCC=C(C)C)C=C2 (centres unmarked) [CBC, cannabichromene]
IC50 Values (MTT method) (CCD 841 CoTr cells [1]; [5]): 75.29 µg/mL (≈ 239 µM) | Stimulation of cell metabolism compared to the control (MTT) (CCD 841 CoTr cells [1]; CCD 841 CoTr, lowest concentration, 24 h): over 4% | IC50 (CCD 841 CoTr cells [1]; [5]): 75.2 µg/mL (≈ 239 µM) | IC50 (CCD 841 CoTr cells [2]): 151 µg/mL (≈ 480 µM) | Reduction Value Corresponding to the Ascorbic Acid Concentration (FRAP) [3, 6]: 0.151 ± 0.001 µg/mL | Reduction Value Corresponding to the Ascorbic Acid Concentration (FRAP) [3, 7]: 0.453 ± 0.104 µg/mL | Reduction Value Corresponding to the Ascorbic Acid Concentration (FRAP) [3, 8]: 1.008 ± 0.403 µg/mL | Effect on cell cycle transitions (in words) (CCD 841 CoTr cells [4]): limited the transition of cells from the S to G2 phase | Percentage of cells in G1 phase (CCD 841 CoTr cells [4]): 32.31 ± 0.62% | Percentage of cells in G2 phase (CCD 841 CoTr cells [4]): 22.78 ± 0.86% | Percentage of cells in S phase (CCD 841 CoTr cells [4]): 23.38 ± 0.79 % | Percentage of cells in sub-G1 phase (CCD 841 CoTr cells [4]): 15.17 ± 0.79 % | Reduction in the number of cells in the sub-G1 phase compared to the control (CCD 841 CoTr cells [4]): 6.96%

CCCCCc1cc2c3c(c1)OC(C)(C)C1CCC(C)(CC31)O2 (centres unmarked) [CBT, cannabicitran]
IC50 (CCD 841 CoTr cells [1]; [5]): 55.5 µg/mL (≈ 177 µM) | IC50 (CCD 841 CoTr cells [2]): 44.5 µg/mL (≈ 141 µM) | Reduction Value Corresponding to the Ascorbic Acid Concentration (FRAP) [3, 6]: 0.353 ± 0.110 µg/mL | Reduction Value Corresponding to the Ascorbic Acid Concentration (FRAP) [3, 7]: 0.353 ± 0.201 µg/mL | Reduction Value Corresponding to the Ascorbic Acid Concentration (FRAP) [3, 8]: 0.504 ± 0.258 µg/mL | Effect on cell cycle transitions (in words) (CCD 841 CoTr cells [4]): caused the accumulation of cells in the S phase | Increase in the number of cells in the sub-G1 phase compared to the control (CCD 841 CoTr cells [4]): 6.71% | Percentage of cells in G1 phase (CCD 841 CoTr cells [4]): 28.81 ± 0.86 % | Percentage of cells in G2 phase (CCD 841 CoTr cells [4]): 16.54 ± 0.72 % | Percentage of cells in S phase (CCD 841 CoTr cells [4]): 22.23 ± 0.15 % | Percentage of cells in sub-G1 phase (CCD 841 CoTr cells [4]): 28.84 ± 0.66 %

CCCCCc1cc(O)cc(O)c1C/C=C(\C)CCC=C(C)C [abn-CBG, abnormal cannabigerol]
Reduction of the metabolism of normal cells (MTT) (CCD 841 CoTr cells [1]; CCD 841 CoTr, 25 μg/mL, 24 h): over 81% | IC50 (CCD 841 CoTr cells [1]; [5]): 15.3 µg/mL (≈ 48.5 µM) | IC50 (CCD 841 CoTr cells [2]): 14.1 µg/mL (≈ 44.6 µM) | Reduction Value Corresponding to the Ascorbic Acid Concentration (FRAP) [3, 6]: 0.857 ± 0.316 µg/mL | Reduction Value Corresponding to the Ascorbic Acid Concentration (FRAP) [3, 7]: 1.059 ± 0.328 µg/mL | Reduction Value Corresponding to the Ascorbic Acid Concentration (FRAP) [3, 8]: 1.411 µg/mL and 1.411 ± 0.465 µg/mL | Increase in the number of cells in the sub-G1 phase compared to the control (CCD 841 CoTr cells [4]): 53.97% | Percentage of cells in G1 phase (CCD 841 CoTr cells [4]): 11.63 ± 0.83 % | Percentage of cells in G2 phase (CCD 841 CoTr cells [4]): 3.46 ± 0.79 % | Percentage of cells in S phase (CCD 841 CoTr cells [4]): 8.24 ± 0.56 % | Percentage of cells in sub-G1 phase (CCD 841 CoTr cells [4]): 76.10 ± 2.21 %
